SMILES strings stand for the structures. pEC50: −log10 of the molar value. Where only a bound is given, the exact number is not on record here.

The test system of one test is HBV. Put plainly: HBV inhibition assay in HepAD38 cells (extracellular HBV DNA by direct qPCR). The format is cell-based, HBV genotype D subtype ayw. The following applies: 96 hours, read-out: HBV inh EC50. The source says: HepAD38 cell line (Ladner et al., Antimicrob Agents Chemother, 1997, 41, 1715-20) was used for HBV inhibition assays. HepAD38 is a subclone, derived from hepatoblastoma cell line HepG2 (ATCC® Number: HB-8065), that expresses HBV genome (genotype D subtype ayw) under the transcriptional control of a tetracycline-responsive promoter in a TET-OFF system: addition of doxycycline, an antibiotic belonging to the class of tetracycline, suppresses HBV replication, while its removal switches on the process allowing HBV viral particles release in the cell supernatant. HepAD38 cell line is maintained in DMEM/F12, supplemented with 10% of fetal bovine serum, 1% of glutamine, 1% of penicillin/streptomycin, 0.4 mg/ml G418 and 0.3 ug/ml tetracycline. For the HBV inhibition assay, doxycycline-free medium is used in order to allow virion production.
HBV inhibition activity in vitro was performed in 96 multiwell plates. During the initial (primary) screening, compounds were first tested in triplicates at concentrations of 0.02 μM, 0.1 μM, 0.5 μM and 1 μM. For selected compounds, an 8-point dose-response curve was obtained using 1:2 serial dilutions (starting from 0.01 μM, 0.1 μM, 0.4 μM or 5 μM, depending on the degree of inhibition observed during the primary screening). From the dose-response curves, half maximal effective concentration (EC50) could be calculated (see also below).
In more detail, compounds—typically dissolved in DMSO stock solutions—were diluted to 2× the final desired concentration in 100 μl of the above medium (without doxycycline) and plated in three replicates in the 96-well plates.
Simultaneously, HepAD38 cells—extensively pre-washed in doxycycline-free medium in order to induce HBV production—were suspended at 2*10^4 cells in 100 μl of doxycycline-free medium and added to each well of the plate, to yield a final assay volume of 200 μl.
DMSO, used for stock solutions and compounds dilutions, was always present in the assays at a final concentration of 0.5%.
Plates were then incubated 96 hours at 37° C. and then subjected to cell viability assays and extracellular HBV quantification, in order to evaluate both the cytotoxic potential and the antiviral activity of compounds.
Cytotoxicity was assessed by a commercial fluorescence assay that measures the metabolic activity of cells, directly related to cell viability (Cell Titer Blue, Promega). For each compound, cytotoxicity was evaluated at the same concentration employed to evaluate its anti-HBV activity. Anti-HBV activity was evaluated by quantification of extracellular HBV DNA with direct qPCR. In particular, supernatant was collected and centrifuged for cell debris clarification, viral DNA was extracted from virions by addition of lysis buffer (1 mM 1,4-dithiothreitol, 0.2% sodium dodecyl sulphate) and incubated at 95° C. for 10 min. Samples were then diluted 1:40 and real time PCR amplification was performed with SYBR green assay (Power SYBR™ Green PCR Master Mix-Thermo Fisher Scientific) and specific HBV primer (HBV-DF:5′-[…]-3′ (SEQ ID No. 1), HBV-DR:5′-[…]-3′ (SEQ ID No. 2)).
Antiviral activity data for each compound are reported as EC50 value (see Table 1 legend). Excel and Graphpad Prism programs are typically used for data elaboration and EC50 calculation.
Usually pEC50 stands for the negative decadic logarithm of the EC50, by convention in mol/L. In the case of `Cc1cc(NC(=O)c2c3c(cn2C)S(=O)(=O)NC2CN(C(=O)C(=O)NCC(F)(F)F)CCC2CO3)ccc1F` (racemic) [Example E68, Trans-N-(4-fluoro-3-methylphenyl)-2-methyl-7-(2-oxo-2-((2,2,2-trifluoroethyl)amino)acetyl)-5,5a,6,7,8,9,9a,10-octahydro-2H-pyrido[3,4-f]pyrrolo[3,4-b][1,4,5]oxathiazocine-1-carboxamide 4,4-dioxide], the negative-log EC50 (pEC50) is > 6.30.

For `Cc1cc(NC(=O)c2c3c(cn2C)S(=O)(=O)NC2CN(C(=O)C(=O)N4CC(F)(F)C4)CCC2CO3)ccc1F` (racemic) [Example E70, Trans-7-(2-(3,3-difluoroazetidin-1-yl)-2-oxoacetyl)-N-(4-fluoro-3-methylphenyl)-2-methyl-5,5a,6,7,8,9,9a,10-octahydro-2H-pyrido[3,4-f]pyrrolo[3,4-b][1,4,5]oxathiazocine-1-carboxamide 4,4-dioxide], the pEC50 was > 6.30.

Take `Cc1cc(NC(=O)c2c3c(cn2C)S(=O)(=O)NC2CCN(C(=O)C(=O)NCC(F)(F)F)CC2CO3)ccc1F` (racemic) [Example E73, Cis-N-(4-fluoro-3-methylphenyl)-2-methyl-8-(2-oxo-2-((2,2,2-trifluoroethyl)amino)acetyl)-5,5a,6,7,8,9,9a,10-octahydro-2H-pyrido[4,3-f]pyrrolo[3,4-b][1,4,5]oxathiazocine-1-carboxamide 4,4-dioxide]: the pEC50 was > 6.30.

Still in this test, the particulars now being: Hepatitis B virus, 96 hours, read-out: HBV inh EC50.
As to `Cc1cc(NC(=O)c2c3c(cn2C)S(=O)(=O)NC2CN(C(=O)C(=O)N[C@H](C)C(F)(F)F)CCC2CO3)ccc1F` (mixture of isomers) [Example E60, Cis-N-(4-fluoro-3-methylphenyl)-2-methyl-7-(2-oxo-2-(((R)-1,1,1-trifluoropropan-2-yl)amino)acetyl)-5,5a,6,7,8,9,9a,10-octahydro-2H-pyrido[3,4-f]pyrrolo[3,4-b][1,4,5]oxathiazocine-1-carboxamide 4,4-dioxide], the negative logarithm of the EC50 (pEC50) was > 6.30.

As for `Cc1cc(NC(=O)c2c3c(cn2C)S(=O)(=O)NC2(C)CN(C(=O)C(=O)N[C@H](C)C(F)(F)F)CC2CO3)ccc1F` (stereo in doubt) [Example E27, Cis-N-(4-fluoro-3-methylphenyl)-3a,7-dimethyl-2-(2-oxo-2-(((R)-1,1,1-trifluoropropan-2-yl)amino)acetyl)-2,3,3a,4,10,10a-hexahydro-1H,7H-dipyrrolo[3,4-b:3 ‘,4’-f][1,4,5]oxathiazocine-8-carboxamide 5,5-dioxide], the pEC50 is > 6.30.

As to `Cc1cc(NC(=O)c2c3c(cn2C)S(=O)(=O)N[C@H]2CN(C(=O)C(=O)N[C@H](C)C(F)(F)F)C[C@@]2(C)CO3)ccc1F` [Example E74, (3aR,10aR)—N-(4-fluoro-3-methylphenyl)-7,10a-dimethyl-2-(2-oxo-2-(((R)-1,1,1-trifluoropropan-2-yl)amino)acetyl)-2,3,3a,4,10,10a-hexahydro-1H,7H-dipyrrolo[3,4-b:3′,4′-f][1,4,5]oxathiazocine-8-carboxamide 5,5-dioxide], the negative-log EC50 (pEC50) is > 6.30.

Take `Cc1cc(NC(=O)c2c3c(cn2C)S(=O)(=O)NC2CCN(C(=O)C(=O)N[C@H](C)C(F)(F)F)CC2CO3)ccc1F` (mixture of isomers) [Example E59, Trans-N-(4-fluoro-3-methylphenyl)-2-methyl-8-(2-oxo-2-(((R)-1,1,1-trifluoropropan-2-yl)amino)acetyl)-5,5a,6,7,8,9,9a,10-octahydro-2H-pyrido[4,3-f]pyrrolo[3,4-b][1,4,5]oxathiazocine-1-carboxamide 4,4-dioxide]: the negative logarithm of the EC50 (pEC50) was > 6.30.

On to `Cc1cc(NC(=O)c2c3c(c(C)n2C)S(=O)(=O)N[C@H]2CN(C(=O)C(=O)N[C@H](C)C(F)(F)F)C[C@H]2CO3)ccc1F` [Example E53, (3aR,10aR)—N-(4-fluoro-3-methylphenyl)-6,7-dimethyl-2-(2-oxo-2-(((R)-1,1,1-trifluoropropan-2-yl)amino)acetyl)-2,3,3a,4,10,10a-hexahydro-1H,7H-dipyrrolo[3,4-b:3′,4′-f][1,4,5]oxathiazocine-8-carboxamide 5,5-dioxide], for which the pEC50 was > 6.30.

In the case of `Cc1cc(NC(=O)c2c3c(cn2C)S(=O)(=O)NC2CCN(C(=O)C(=O)NCC(F)(F)F)CC2CO3)ccc1F` (racemic) [Example E57, Trans-N-(4-fluoro-3-methylphenyl)-2-methyl-8-(2-oxo-2-((2,2,2-trifluoroethyl)amino)acetyl)-5,5a,6,7,8,9,9a,10-octahydro-2H-pyrido[4,3-f]pyrrolo[3,4-b][1,4,5]oxathiazocine-1-carboxamide 4,4-dioxide], the negative-log EC50 (pEC50) was > 6.30.

As for `Cc1cc(NC(=O)c2c3c(cn2C)S(=O)(=O)NC2CN(C(=O)C(=O)NC(C)(C)C(F)(F)F)CCC2CO3)ccc1F` (racemic) [Example E62, Cis-N-(4-fluoro-3-methylphenyl)-2-methyl-7-(2-oxo-2-((1,1,1-trifluoro-2-methylpropan-2-yl)amino)acetyl)-5,5a,6,7,8,9,9a,10-octahydro-2H-pyrido[3,4-f]pyrrolo[3,4-b][1,4,5]oxathiazocine-1-carboxamide 4,4-dioxide], the negative logarithm of the EC50 (pEC50) was > 6.30.

For the compound `Cc1cc(NC(=O)c2c3c(c(Br)n2C)S(=O)(=O)N[C@H]2CN(C(=O)C(=O)N[C@H](C)C(F)(F)F)C[C@H]2CO3)ccc1F` [Example E52, (3aR,10aR)-6-bromo-N-(4-fluoro-3-methylphenyl)-7-methyl-2-(2-oxo-2-(((R)-1,1,1-trifluoropropan-2-yl)amino)acetyl)-2,3,3a,4,10,10a-hexahydro-1H,7H-dipyrrolo[3,4-b:3′,4′-f][1,4,5]oxathiazocine-8-carboxamide 5,5-dioxide], the pEC50 is > 6.30.

Consider `Cc1cc(NC(=O)c2c3c(cn2C)S(=O)(=O)NC2CN(C(=O)C(=O)N[C@H](C)C(F)(F)F)CC2(C)CO3)ccc1F` (stereo in doubt) [Example E26, Cis-N-(4-fluoro-3-methylphenyl)-7,10a-dimethyl-2-(2-oxo-2-(((R)-1,1,1-trifluoropropan-2-yl)amino)acetyl)-2,3,3a,4,10,10a-hexahydro-1H,7H-dipyrrolo[3,4-b:3′,4′-f][1,4,5]oxathiazocine-8-carboxamide 5,5-dioxide], for which the pEC50 was > 6.30.

On to `Cc1cc(NC(=O)c2c3c(cn2C)S(=O)(=O)NC2CN(C(=O)C(=O)N[C@H](C)C(F)(F)F)CC2CO3)ccc1F` (stereo in doubt) [Example E30, trans-N-(4-fluoro-3-methylphenyl)-7-methyl-2-(2-oxo-2-(((R)-1,1,1-trifluoropropan-2-yl)amino)acetyl)-2,3,3a,4,10,10a-hexahydro-1H,7H-dipyrrolo[3,4-b:3′,4′-f][1,4,5]oxathiazocine-8-carboxamide 5,5-dioxide], for which the negative logarithm of the EC50 (pEC50) was > 6.30.

As to `Cc1cc(NC(=O)c2c3c(cn2C)S(=O)(=O)NC2CCN(C(=O)C(=O)NC(C)(C)C(F)(F)F)CC2CO3)ccc1F` (racemic) [Example E58, Trans-N-(4-fluoro-3-methylphenyl)-2-methyl-8-(2-oxo-2-((1,1,1-trifluoro-2-methylpropan-2-yl)amino)acetyl)-5,5a,6,7,8,9,9a,10-octahydro-2H-pyrido[4,3-f]pyrrolo[3,4-b][1,4,5]oxathiazocine-1-carboxamide 4,4-dioxide], the pEC50 was > 6.30.

The values above are taken from patent publication US12465590B2, “Oxalamido-substituted tricyclic inhibitors of hepatitis b virus” (priority 2019, dated 2025).
